{"source": "patent US20100104511A1", "about": "“METHODS AND COMPOSITIONS USING CHELATOR-ANTIBODY CONJUGATES” (priority 2006, published 2010)", "test_in_all_cases": "Apoptosis by Annexin-V-Fluos staining and flow cytometry", "key": {"H3255 cells": {"system": "H3255 cells", "settings": "H3255, 10 μM, 72 hours", "experimental": "(§1) In vitro Analysis of Apoptosis. […] The cells were washed in PBS. Cell suspension was then stained with Annexin-V-Fluos (Roche Diagnostics, Mannheim, Germany) for 30 minutes before labeled cells were quantitated by flow cytometry (EpicsXL; Beckman Coulter, MarmiMiami, Fla., USA)."}, "H441 cells": {"system": "H441 cells", "settings": "H441, 10 μM, 72 hours", "experimental": "as §1"}, "MDA-MB-231 cells": {"system": "MDA-MB-231 cells", "settings": "MDA-MB-231, 10 μM, 72 hours", "experimental": "as §1"}}}
{"molecule": "COc1cc2ncnc(Nc3ccc(F)c(Cl)c3)c2cc1OCCCN1CCOCC1", "note": "[gefitinib]", "values": [{"measurement": "apoptosis percentage after deducting DMSO control", "setting": "H3255 cells", "value": 25.86, "unit": "%"}, {"measurement": "apoptosis percentage after deducting DMSO control", "setting": "H441 cells", "value": 8.13, "unit": "%"}, {"measurement": "apoptosis percentage after deducting DMSO control", "setting": "MDA-MB-231 cells", "value": 6.92, "unit": "%"}]}
